Experimental findings from ChEMBL document CHEMBL1136671, “Amino propynyl benzoic acid building block in rigid spacers of divalent ligands binding to the Syk SH2 domains with equally high affinity as the natural ligand” (Bioorg Med Chem Lett, 2003) are described below.

As a reminder, the IC50 is the midpoint of a concentration-inhibition curve. The Kd is the concentration at which binding is half-saturated. A lower Kd goes with higher affinity.

The target of assay [1] is T1, Tyrosine-protein kinase SYK (Homo sapiens, UniProt P43405). The assay is described as follows: Binding affinity for Syk tandem SH2 domain in surface plasmon resonance assay (SPR). On the technique in general: SPR reads the build-up and loss of mass on a sensor chip optically.
Assay [2] has as its target T1, Tyrosine-protein kinase SYK. The experiment in a line: Dissociation binding constant for Syk tandem SH2 domain.

Numbered stars: 1 amine (or outer) side, 2 acyl side, 3 side chain; on linkers, the order of the positions; unused ones are H or OH. Square brackets hold non-standard residues; d marks the D form. Peptide text beside a SMILES is read from it. NH(CH2CH2O)6CH2CO = O=C(COCCOCCOCCOCCOCCOCCN[*:1])[*:2]; pY = N[C@@H](Cc1ccc(OP(=O)(O)O)cc1)C(=O)O; X1 = O=C(c1ccc(C#CCN[*:1])cc1)[*:2]

Consider `CC(=O)N[C@@H](Cc1ccc(OP(=O)(O)O)cc1)C(=O)N[C@@H](CCC(=O)O)C(=O)N[C@H](C(=O)N[C@@H](CC(C)C)C(N)=O)[C@@H](C)O` (Ac-[pY]ETL-NH2), for which the IC50 in assay [1] amounted to 570000 nM. Further, the Kd in assay [2] came out at 166000 nM.
The corresponding values for `CC(=O)N[C@@H](Cc1ccc(OP(=O)(O)O)cc1)C(=O)N[C@H](C(=O)NCC(=O)N[C@@H](CC(C)C)C(=O)NCC(=O)NCC#Cc1ccc(C(=O)NCC(=O)N[C@@H](Cc2ccc(OP(=O)(O)O)cc2)C(=O)N[C@@H](CCC(=O)O)C(=O)N[C@H](C(=O)N[C@@H](CC(C)C)C(N)=O)[C@@H](C)O)cc1)[C@@H](C)O` (Ac-[pY]TGLG[X1]G[pY]ETL-NH2) are 62000 nM and 4000 nM.
The corresponding values for `CC(=O)N[C@@H](Cc1ccc(OP(=O)(O)O)cc1)C(=O)N[C@H](C(=O)NCC(=O)N[C@@H](CC(C)C)C(=O)N[C@@H](CC(N)=O)C(=O)N[C@H](C(=O)N[C@@H](CCCN=C(N)N)C(=O)N[C@@H](CO)C(=O)N[C@@H](CCC(N)=O)C(=O)N[C@@H](CCC(=O)O)C(=O)N[C@H](C(=O)N[C@@H](Cc1ccc(OP(=O)(O)O)cc1)C(=O)N[C@@H](CCC(=O)O)C(=O)N[C@H](C(=O)N[C@@H](CC(C)C)C(N)=O)[C@@H](C)O)[C@@H](C)O)[C@@H](C)O)[C@@H](C)O` (Ac-[pY]TGLNTRSQET[pY]ETL-NH2) are 130 nM and 37 nM.
The corresponding values for `CC(=O)N[C@@H](Cc1ccc(OP(=O)(O)O)cc1)C(=O)N[C@H](C(=O)NCC(=O)N[C@@H](CC(C)C)C(=O)NCCOCCOCCOCCOCCOCCOCC(=O)N[C@@H](Cc1ccc(OP(=O)(O)O)cc1)C(=O)N[C@@H](CCC(=O)O)C(=O)N[C@H](C(=O)N[C@@H](CC(C)C)C(N)=O)[C@@H](C)O)[C@@H](C)O` (Ac-[pY]TGL[NH(CH2CH2O)6CH2CO][pY]ETL-NH2) are 1200 nM and 340 nM.
On to `CC(=O)N[C@@H](Cc1ccc(OP(=O)(O)O)cc1)C(=O)N[C@H](C(=O)NCC(=O)N[C@@H](CC(C)C)C(=O)NCC#Cc1ccc(C(=O)NCC#Cc2ccc(C(=O)N[C@@H](Cc3ccc(OP(=O)(O)O)cc3)C(=O)N[C@@H](CCC(=O)O)C(=O)N[C@H](C(=O)N[C@@H](CC(C)C)C(N)=O)[C@@H](C)O)cc2)cc1)[C@@H](C)O` (Ac-[pY]TGL[X1][X1][pY]ETL-NH2), for which the 50% inhibitory concentration (IC50) in assay [1] was 100 nM. The Kd in assay [2] is 29 nM.
